The values that follow are results of earlier work, collected in article PMC11682675 (Infection and Drug Resistance, 2024).

For this data set the following is noted: reported by some studies.

Residues, ends and D or L forms follow the SMILES beside them.

Regarding `CC[C@H](C)CCCCC(=O)N[C@@H](CCN)C(=O)N[C@H](C(=O)N[C@@H](CCN)C(=O)N[C@H]1CCNC(=O)[C@H]([C@@H](C)O)NC(=O)[C@H](CCN)NC(=O)[C@H](CCN)NC(=O)[C@H](CC(C)C)NC(=O)[C@@H](Cc2ccccc2)NC(=O)[C@H](CCN)NC1=O)[C@@H](C)O` [PMB, Polymyxin B] (HELM PEPTIDE1{[CC[C@H](C)CCCCC(=O)[*:2]].[Dab].T.[Dab].[Dab].[Dab].[dF].L.[Dab].[Dab].T}$PEPTIDE1,PEPTIDE1,5:R3-11:R2$$$V2.0), the “CL of PMB in ECMO patients” value is reported as 1.16 L/h and the “Vd of PMB in ECMO patients” value was 19.7 L.
